The values that follow are results of earlier work, collected in patent US20030219799A1, “Cancer-linked gene as target for chemotherapy” (priority 2002, published 2003).

For data set [1] the following is noted: in vivo.
For data set [2] the following is noted: in vitro.
For the next data set, the system named is cultured cell lines. Conditions: versus cis-platin and doxorubicin.
Data set [3] has as its system subcutaneous COLO 205 human colon tumor xenografts. Conditions: mice, subcutaneous COLO 205 xenografts, doses well below the maximum tolerated dose.
Data set [4] deals with cultured colon cancer cells.

In the case of `COc1cc2cc(c1Cl)N(C)C(=O)C[C@H](OC(=O)[C@H](C)N(C)C(C)=O)[C@]1(C)O[C@H]1[C@H](C)[C@@H]1C[C@@](O)(NC(=O)O1)[C@H](OC)/C=C/C=C(\C)C2` [Maytansine], the “value in human clinical trials” value in data set [1] is on record as “little value”.
`COc1cc2cc(c1Cl)N(C)C(=O)C[C@H](OC(=O)[C@H](C)N(C)C(=O)CCS)[C@]1(C)O[C@H]1[C@H](C)[C@@H]1C[C@@](O)(NC(=O)O1)[C@H](OC)/C=C/C=C(\C)C2` [DM1]: the “cytotoxicity relative to maytansine” value in data set [2] is “up to 10 fold”.
On to `Cc1c[nH]c2c1[C@@]13C[C@@H]1CN(C(=O)c1cc4cc(NC(=O)c5cc6ccccc6o5)ccc4[nH]1)C3=CC2=O` [Adozelesin], for which the “toxicity to cultured cell lines relative to other DNA interacting agents” value with cultured cell lines is on record as “about 1,000 fold”.

B1: immunoconjugate of the maytansinoid cytotoxin DM1 and C242 antibody: DM1 linked to C242, a murine IgG1 with affinity for a mucin-like glycoprotein of human colorectal cancers (conjugate, chains of the INN, looked up)
VH: QVQLVQSGAEVKKPGETVKISCKASDYTFTYYGMNWVKQAPGQGLKWMGWIDTTTGEPTYAQKFQGRIAFSLETSASTAYLQIKSLKSEDTATYFCARRGPYNWYFDVWGQGTTVTVSS
VL: DIVMTQSPLSVPVTPGEPVSISCRSSKSLLHSNGNTYLYWFLQRPGQSPQLLIYRMSNLVSGVPDRFSGSGSGTAFTLRISRVEAEDVGVYYCLQHLEYPFTFGPGTKLELK
modifications: DM1 maytansinoid conjugate
As to B1, the “anti-tumor effects in vivo” value in data set [3] is “anti-tumor effects”. Moreover, in data set [4], the “cytotoxicity against cultured colon cancer cells” value was “highly cytotoxic”.
